Each block holds one compound with its values, some of them ahead of it.
Columns and labels:
[1] = target: T1, Non-receptor tyrosine-protein kinase TNK1 (Homo sapiens) (UniProt Q13470); assay: Selectivity interaction (KinomeScan (DiscoverX)) EUB0000618a TNK1; details: at 10 µM
T1 sequence (whole entry): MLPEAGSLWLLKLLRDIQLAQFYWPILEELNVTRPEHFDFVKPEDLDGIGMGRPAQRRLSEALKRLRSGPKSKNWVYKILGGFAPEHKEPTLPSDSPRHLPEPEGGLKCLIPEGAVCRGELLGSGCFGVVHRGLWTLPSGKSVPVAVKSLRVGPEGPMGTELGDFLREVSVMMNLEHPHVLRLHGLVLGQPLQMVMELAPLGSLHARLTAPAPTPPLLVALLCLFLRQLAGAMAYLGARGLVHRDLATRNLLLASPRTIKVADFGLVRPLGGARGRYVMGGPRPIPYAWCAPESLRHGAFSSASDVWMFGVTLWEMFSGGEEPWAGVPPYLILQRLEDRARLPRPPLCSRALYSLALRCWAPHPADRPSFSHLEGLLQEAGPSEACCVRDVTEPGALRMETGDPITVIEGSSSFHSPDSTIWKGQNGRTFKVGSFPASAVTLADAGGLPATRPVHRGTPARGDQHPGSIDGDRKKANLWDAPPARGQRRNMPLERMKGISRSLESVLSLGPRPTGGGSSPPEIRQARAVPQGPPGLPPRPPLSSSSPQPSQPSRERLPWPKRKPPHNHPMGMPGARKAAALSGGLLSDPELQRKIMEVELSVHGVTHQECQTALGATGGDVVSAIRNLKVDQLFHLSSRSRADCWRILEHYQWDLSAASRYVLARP

[2] = target: AP2-associated protein kinase 1 (Homo sapiens, UniProt Q2M2I8); assay: Selectivity interaction (KinomeScan (DiscoverX)) EUB0000607a AAK1; details: at 10 µM
Chain of AP2-associated protein kinase 1 (Q2M2I8 whole entry, looked up): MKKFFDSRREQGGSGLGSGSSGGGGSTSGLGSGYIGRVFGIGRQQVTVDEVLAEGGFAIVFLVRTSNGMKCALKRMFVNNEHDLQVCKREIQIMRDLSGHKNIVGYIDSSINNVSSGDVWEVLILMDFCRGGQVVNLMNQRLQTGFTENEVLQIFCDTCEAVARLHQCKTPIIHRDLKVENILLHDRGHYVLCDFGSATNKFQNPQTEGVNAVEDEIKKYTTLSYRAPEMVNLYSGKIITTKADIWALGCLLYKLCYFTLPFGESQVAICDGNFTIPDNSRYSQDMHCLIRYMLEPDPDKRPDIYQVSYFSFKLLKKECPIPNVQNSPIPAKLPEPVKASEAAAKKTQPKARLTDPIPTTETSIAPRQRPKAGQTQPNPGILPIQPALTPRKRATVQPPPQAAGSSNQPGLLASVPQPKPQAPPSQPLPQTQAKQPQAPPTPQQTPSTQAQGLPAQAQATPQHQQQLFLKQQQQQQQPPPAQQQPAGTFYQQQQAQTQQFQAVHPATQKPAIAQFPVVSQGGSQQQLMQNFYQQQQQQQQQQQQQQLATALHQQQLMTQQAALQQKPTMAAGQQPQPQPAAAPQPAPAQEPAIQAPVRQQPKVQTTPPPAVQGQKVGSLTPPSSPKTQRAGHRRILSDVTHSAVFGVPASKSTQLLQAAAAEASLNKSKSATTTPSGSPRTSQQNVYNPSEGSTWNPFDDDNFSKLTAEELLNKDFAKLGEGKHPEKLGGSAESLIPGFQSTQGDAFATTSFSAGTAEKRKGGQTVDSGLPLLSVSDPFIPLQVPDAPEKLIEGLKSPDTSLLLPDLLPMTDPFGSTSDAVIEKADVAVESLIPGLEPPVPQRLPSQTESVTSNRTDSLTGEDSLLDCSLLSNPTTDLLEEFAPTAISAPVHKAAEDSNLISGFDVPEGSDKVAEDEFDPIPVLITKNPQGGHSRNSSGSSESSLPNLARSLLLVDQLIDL

[3] = target: T2, Dual specificity mitogen-activated protein kinase kinase 4 (Homo sapiens) (UniProt P45985); assay: Selectivity interaction (ActivX KiNativ screen (ex vivo kinase selectivity in human PBMCs)) EUB0001619a MAP2K4; assay type: cell-based; details: PBMC, at 1 µM
T2 sequence (whole entry): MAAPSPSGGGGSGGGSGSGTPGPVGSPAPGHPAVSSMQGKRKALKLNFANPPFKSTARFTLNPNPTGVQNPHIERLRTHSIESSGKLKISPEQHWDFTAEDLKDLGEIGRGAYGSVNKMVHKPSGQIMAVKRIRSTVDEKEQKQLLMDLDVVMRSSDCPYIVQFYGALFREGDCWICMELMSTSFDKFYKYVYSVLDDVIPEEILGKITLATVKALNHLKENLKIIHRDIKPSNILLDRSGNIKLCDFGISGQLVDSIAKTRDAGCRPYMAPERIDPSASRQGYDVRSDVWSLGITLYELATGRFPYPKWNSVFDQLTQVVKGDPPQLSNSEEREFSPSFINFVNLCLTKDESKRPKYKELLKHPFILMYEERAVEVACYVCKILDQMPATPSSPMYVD

[4] = target: Serine/threonine-protein kinase pim-1 (Homo sapiens, UniProt P11309); assay: Selectivity interaction (KinomeScan (DiscoverX)) EUB0001619a PIM1; details: at 1 µM
Chain of Serine/threonine-protein kinase pim-1 (P11309 whole entry, looked up): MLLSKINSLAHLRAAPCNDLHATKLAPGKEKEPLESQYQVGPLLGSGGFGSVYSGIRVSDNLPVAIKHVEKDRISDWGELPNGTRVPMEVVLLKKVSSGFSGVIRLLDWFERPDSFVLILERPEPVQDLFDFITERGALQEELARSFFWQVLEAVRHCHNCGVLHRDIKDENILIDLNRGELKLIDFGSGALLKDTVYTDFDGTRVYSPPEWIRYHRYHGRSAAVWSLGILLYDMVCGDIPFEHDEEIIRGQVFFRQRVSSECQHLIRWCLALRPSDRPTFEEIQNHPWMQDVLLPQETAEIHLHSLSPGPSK

[5] = target: Dual specificity protein kinase CLK4 (Homo sapiens, UniProt Q9HAZ1); assay: Selectivity interaction (KinomeScan (DiscoverX)) EUB0000045b CLK4
Chain of Dual specificity protein kinase CLK4 (Q9HAZ1 whole entry, looked up): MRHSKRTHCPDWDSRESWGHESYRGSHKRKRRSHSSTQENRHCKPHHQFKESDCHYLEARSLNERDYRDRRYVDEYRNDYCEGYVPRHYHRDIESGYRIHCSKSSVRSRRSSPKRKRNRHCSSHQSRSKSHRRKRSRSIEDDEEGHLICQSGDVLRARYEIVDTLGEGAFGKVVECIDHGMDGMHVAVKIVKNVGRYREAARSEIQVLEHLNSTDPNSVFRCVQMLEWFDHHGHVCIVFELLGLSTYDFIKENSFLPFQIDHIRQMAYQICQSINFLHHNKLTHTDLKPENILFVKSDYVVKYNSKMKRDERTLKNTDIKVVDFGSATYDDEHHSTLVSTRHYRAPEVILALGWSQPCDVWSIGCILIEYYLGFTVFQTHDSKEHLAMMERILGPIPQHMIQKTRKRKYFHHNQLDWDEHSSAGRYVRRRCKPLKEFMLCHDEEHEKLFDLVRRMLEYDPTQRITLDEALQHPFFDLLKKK

[6] = target: Protein kinase C eta type (Homo sapiens) (UniProt P24723); assay: Selectivity interaction (KinomeScan (DiscoverX)) EUB0000595a PRKCH; details: at 10 µM
Chain of Protein kinase C eta type (Homo sapiens) (P24723 whole entry): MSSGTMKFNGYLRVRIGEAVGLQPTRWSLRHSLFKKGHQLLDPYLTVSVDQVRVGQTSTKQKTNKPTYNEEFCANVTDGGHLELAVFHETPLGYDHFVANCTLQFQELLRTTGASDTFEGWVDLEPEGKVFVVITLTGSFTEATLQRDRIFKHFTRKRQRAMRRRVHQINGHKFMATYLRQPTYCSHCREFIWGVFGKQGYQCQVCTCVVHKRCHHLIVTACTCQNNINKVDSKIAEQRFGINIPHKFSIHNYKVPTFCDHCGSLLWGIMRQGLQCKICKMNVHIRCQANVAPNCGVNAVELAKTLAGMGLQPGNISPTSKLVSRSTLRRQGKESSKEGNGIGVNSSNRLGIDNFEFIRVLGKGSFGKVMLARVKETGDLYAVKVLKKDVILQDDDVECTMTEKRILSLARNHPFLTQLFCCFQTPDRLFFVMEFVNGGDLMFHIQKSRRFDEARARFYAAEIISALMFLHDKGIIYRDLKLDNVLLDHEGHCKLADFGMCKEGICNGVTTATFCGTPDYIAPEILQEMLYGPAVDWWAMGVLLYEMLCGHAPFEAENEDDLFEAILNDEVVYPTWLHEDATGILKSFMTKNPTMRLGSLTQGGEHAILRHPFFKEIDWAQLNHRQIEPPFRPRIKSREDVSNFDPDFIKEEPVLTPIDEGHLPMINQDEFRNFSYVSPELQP

[7] = target: Tyrosine-protein kinase Yes (Homo sapiens) (UniProt P07947); details: at 10 µM
Chain of Tyrosine-protein kinase Yes (Homo sapiens) (P07947 2-543 limits assumed): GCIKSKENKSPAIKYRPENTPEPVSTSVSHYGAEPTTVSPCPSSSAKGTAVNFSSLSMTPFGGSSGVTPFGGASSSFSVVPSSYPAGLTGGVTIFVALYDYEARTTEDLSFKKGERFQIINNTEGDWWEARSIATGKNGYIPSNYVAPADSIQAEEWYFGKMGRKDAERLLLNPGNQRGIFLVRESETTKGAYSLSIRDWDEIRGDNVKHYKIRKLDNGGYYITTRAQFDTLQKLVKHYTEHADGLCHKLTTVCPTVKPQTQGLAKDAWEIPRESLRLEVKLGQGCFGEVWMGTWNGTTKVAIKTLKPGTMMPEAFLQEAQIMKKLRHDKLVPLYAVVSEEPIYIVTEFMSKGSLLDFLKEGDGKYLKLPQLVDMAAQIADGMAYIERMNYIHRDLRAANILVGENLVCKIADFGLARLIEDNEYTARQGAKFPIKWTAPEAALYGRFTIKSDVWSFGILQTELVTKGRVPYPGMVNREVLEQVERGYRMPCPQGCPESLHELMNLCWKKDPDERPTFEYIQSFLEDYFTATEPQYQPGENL

Aurora kinase B [8] = target: T3, Aurora kinase B (Homo sapiens, UniProt Q96GD4); assay: Selectivity interaction (ProQinase) EUB0000171b AURKB
T3 sequence (Q96GD4 whole entry): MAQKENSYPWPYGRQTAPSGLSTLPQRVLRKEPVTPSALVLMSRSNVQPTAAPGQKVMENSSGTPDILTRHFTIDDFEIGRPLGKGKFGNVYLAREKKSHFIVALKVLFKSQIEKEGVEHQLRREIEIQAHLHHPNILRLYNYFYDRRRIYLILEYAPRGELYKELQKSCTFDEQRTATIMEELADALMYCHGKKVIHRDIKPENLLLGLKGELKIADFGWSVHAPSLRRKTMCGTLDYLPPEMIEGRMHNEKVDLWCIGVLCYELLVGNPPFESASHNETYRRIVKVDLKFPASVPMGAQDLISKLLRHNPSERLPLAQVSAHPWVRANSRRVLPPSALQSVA

[9] = target: T4, Dual specificity tyrosine-phosphorylation-regulated kinase 3 (Homo sapiens, UniProt O43781); assay: Selectivity interaction (Enzymatic assay (Eurofins)) EUB0001049a DYRK3
T4 sequence (O43781 whole entry): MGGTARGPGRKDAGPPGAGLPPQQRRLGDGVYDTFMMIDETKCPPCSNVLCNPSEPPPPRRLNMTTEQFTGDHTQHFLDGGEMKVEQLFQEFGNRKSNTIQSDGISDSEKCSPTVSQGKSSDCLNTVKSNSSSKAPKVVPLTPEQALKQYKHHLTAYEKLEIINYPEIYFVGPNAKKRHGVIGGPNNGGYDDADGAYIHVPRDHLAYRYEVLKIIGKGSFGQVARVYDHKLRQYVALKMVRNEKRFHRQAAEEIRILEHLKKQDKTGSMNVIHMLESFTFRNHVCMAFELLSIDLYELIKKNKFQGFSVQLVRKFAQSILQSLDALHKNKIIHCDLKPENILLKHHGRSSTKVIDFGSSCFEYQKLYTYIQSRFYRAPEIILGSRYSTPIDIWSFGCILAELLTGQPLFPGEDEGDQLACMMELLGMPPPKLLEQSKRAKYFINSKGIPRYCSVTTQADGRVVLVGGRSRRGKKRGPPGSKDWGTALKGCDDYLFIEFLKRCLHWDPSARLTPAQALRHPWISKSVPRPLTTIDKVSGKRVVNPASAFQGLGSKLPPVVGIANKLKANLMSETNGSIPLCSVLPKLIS

Histamine H1 receptor = Histamine H1 receptor (Homo sapiens, UniProt P35367); assay: Selectivity interaction (Panel of kinases, GPCRs, ion channels and transporters (enzymatic assay)) EUB0000266bCl HRH1
Chain of Histamine H1 receptor (P35367 whole entry): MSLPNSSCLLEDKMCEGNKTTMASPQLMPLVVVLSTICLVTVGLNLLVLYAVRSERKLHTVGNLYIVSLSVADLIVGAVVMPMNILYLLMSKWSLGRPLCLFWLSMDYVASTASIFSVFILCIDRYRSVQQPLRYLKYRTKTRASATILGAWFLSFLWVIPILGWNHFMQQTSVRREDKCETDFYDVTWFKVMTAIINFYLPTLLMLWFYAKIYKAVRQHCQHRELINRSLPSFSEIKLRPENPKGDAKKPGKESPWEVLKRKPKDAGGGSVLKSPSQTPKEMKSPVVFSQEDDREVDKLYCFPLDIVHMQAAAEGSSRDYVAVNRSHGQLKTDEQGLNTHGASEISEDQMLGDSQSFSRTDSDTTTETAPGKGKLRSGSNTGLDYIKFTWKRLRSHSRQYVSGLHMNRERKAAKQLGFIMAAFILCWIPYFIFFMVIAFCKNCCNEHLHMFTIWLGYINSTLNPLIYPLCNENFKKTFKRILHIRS

[10] = target: T5, Dual specificity mitogen-activated protein kinase kinase 5 (Homo sapiens) (UniProt Q13163); assay: Selectivity interaction (KinomeScan (DiscoverX)) EUB0000666a MAP2K5; details: at 10 µM
T5 sequence (whole entry): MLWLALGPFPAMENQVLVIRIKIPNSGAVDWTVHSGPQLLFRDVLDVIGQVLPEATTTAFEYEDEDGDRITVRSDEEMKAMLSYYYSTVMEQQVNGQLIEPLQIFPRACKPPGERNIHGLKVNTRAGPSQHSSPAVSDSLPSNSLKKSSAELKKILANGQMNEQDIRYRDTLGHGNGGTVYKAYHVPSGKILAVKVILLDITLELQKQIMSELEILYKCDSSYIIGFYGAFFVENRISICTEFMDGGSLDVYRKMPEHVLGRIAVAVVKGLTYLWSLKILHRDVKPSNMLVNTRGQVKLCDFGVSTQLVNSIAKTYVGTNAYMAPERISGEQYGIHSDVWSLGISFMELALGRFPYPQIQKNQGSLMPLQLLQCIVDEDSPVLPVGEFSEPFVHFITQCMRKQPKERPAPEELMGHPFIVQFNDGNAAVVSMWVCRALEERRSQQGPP

Aurora kinase B [11] = target: T3, Aurora kinase B; assay: Selectivity interaction (KinomeScan (DiscoverX)) EUB0001550a AURKB; details: at 1 µM
[12] = target: Serine/threonine-protein kinase 16 (Homo sapiens, UniProt O75716); assay: Selectivity interaction (LanthaScreen Eu Kinase Binding Assay) EUB0001632a STK16; details: at 10 µM
Chain of Serine/threonine-protein kinase 16 (O75716 whole entry): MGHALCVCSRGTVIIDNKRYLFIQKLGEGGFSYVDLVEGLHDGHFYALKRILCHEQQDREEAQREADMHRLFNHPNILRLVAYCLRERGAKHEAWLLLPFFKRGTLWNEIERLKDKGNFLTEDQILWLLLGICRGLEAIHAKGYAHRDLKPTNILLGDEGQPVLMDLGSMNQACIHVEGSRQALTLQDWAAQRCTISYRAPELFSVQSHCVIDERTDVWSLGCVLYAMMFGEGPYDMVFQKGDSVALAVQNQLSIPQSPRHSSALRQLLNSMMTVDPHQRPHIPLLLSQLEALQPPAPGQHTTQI

[13] = target: Ribosomal protein S6 kinase alpha-2 (Homo sapiens) (UniProt Q15349); assay: Selectivity interaction (KinomeScan (DiscoverX)) EUB0000695a RPS6KA2; details: at 100 nM
Chain of Ribosomal protein S6 kinase alpha-2 (Homo sapiens) (Q15349 whole entry): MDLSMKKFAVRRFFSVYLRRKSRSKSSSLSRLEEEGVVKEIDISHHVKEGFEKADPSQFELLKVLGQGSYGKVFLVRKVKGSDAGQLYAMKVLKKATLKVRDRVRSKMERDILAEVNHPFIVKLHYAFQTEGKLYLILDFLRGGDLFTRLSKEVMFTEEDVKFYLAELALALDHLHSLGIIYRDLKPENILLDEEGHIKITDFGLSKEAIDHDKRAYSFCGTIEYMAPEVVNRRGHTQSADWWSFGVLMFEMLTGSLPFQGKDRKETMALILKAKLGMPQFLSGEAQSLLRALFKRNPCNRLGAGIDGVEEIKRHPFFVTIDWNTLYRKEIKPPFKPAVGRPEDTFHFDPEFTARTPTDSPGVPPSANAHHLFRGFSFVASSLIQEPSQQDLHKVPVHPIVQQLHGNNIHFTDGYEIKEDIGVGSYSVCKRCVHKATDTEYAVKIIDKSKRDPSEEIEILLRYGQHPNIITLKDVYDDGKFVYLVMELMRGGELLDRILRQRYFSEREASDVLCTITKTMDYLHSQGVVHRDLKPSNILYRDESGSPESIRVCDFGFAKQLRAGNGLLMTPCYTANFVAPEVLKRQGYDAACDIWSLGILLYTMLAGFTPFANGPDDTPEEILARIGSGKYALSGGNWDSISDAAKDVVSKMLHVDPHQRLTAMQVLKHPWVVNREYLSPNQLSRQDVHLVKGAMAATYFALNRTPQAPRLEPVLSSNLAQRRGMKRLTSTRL

SMILES: O[C@H]1CC[C@H](Nc2ncc3nc(Nc4c(F)cc(F)cc4F)n([C@H]4CCOC4)c3n2)CC1
% of control [1]: 97%

SMILES: CNC(=O)Nc1ccc(-c2nc(N3CC4CCC(C3)O4)c3cnn(C4CCC5(CC4)OCCO5)c3n2)cc1
% of control [2]: 100%

SMILES: N#Cc1cccc(-c2c[nH]c3ncnc(N4CCOCC4)c23)c1
% of inhibition [3]: 2%
% of control [4]: 100%

SMILES: C=CC(=O)Nc1cc(-n2c(=O)ccc3cnc4ccc(-c5ccc(NS(C)(=O)=O)cc5)cc4c32)ccc1C
% of control ([5]; at 1 µM): 99%
% of control ([5]; at 10 µM): 85%

SMILES: COCC(=O)NC/C=C/c1ccc2ncnc(Nc3ccc(Oc4ccc(C)nc4)c(C)c3)c2c1 [CP-724714]
% of control [6]: 100%

SMILES: Cc1cc([C@@H](C)Nc2ccccc2C(=O)O)c2nc(N3CCOCC3)cc(=O)n2c1 [AZD-6482]
% of control [7]: 100%

% of control (Aurora kinase B [8]; at 1 µM): 73%
% of control (Aurora kinase B [8]; at 5 µM): 40%
SMILES: C=CC(=O)Nc1cccc(C(=O)Nc2ccc(Nc3cc(-c4[nH]c(SC)nc4C)ccn3)cc2)c1

SMILES: COc1cc(Nc2nc(C)cc(-c3cnn4nc(OC)ccc34)n2)cc(C(F)(F)F)c1
IC50 [9]: > 10 µM

pXC50 (Histamine H1 receptor): < 4.4 M
SMILES: CCn1c(-c2nc3cc(C(=O)N4CCCC(N)C4)ccc3n2C)cc2ccccc21 (stereo unspecified)

SMILES: O=C(NOC[C@H](O)CO)c1ccc(F)c(F)c1Nc1ccc(I)cc1F
% of control [10]: 86%

% of control (Aurora kinase B [11]): 23%
SMILES: CN(C)CC#Cc1ccc2[nH]c3c(c2c1)-c1nc(N)ncc1CCC3

% of inhibition [12]: -24.9%
SMILES: Cn1cc(-n2cnc3c(NCc4nc5cc(Cl)c(Cl)cc5[nH]4)nc(N4CCOCC4)nc32)cn1

SMILES: Cc1cc(F)c(C(=O)Nc2cccc(-c3nncn3C(C)C)n2)cc1-n1cnc(C2CC2)c1
% of control [13]: 87%
